Assays:
rabbit liver esterase = assay: Pyridine-esterase activity assay with rabbit liver esterase; assay type: biochemical; conditions: commercially available rabbit liver esterase
Experimental: Esterase activity assays. Esterase activity was measured in vitro by conversion of either [^14 C]thiazopyr or [^14 C]MON 14300 to their corresponding monoacid. Pyridine-esterase activity was assayed during protein purification and from tissue extracts of transgenic plants. The homogenizing buffer for plant tissues consisted of 100 mM Tris pH 8.0, 1 mM EDTA, 1 mM DTT, and 10% glycerol in water. Plant tissues (1 g/ml buffer) including leaves, seeds, flowers, seedlings, etc. were homogenized in conical centrifuge tubes using a spinning pestle at 4° C. […] Following centrifugation (12,000× g for 3 min), the supernatant was analyzed by HPLC/RAD (radioactivity detection) to resolve the monoacid from the parent herbicide and other metabolites. […]
Purification of pyridine-esterases from porcine and rabbit liver. […] Effluent was monitored by UV (280 nm) and fractions were collected at 1 ml intervals. […] Protein purity was determined by SDS-PAGE on 10 to 15% gradient gels (Pharmacia Biotech) with visualization of proteins by silver staining.
Following anion exchange chromatography, fractions with the highest purity and activity were pooled. […] Effluent fractions from IEF chromatography were analyzed for protein and pyridine-esterase activity. The protein purity of the fractions was determined by SDS-PAGE and IEF-PAGE.

RLE3 = target: T1, RLE3 (Oryctolagus cuniculus, UniProt P12337, A196R/H30K); assay: Esterase activity of RLE3 cDNA expressed in insect cells; assay type: biochemical, rabbit; conditions: culture media from SF9 cells containing RLE3 cDNA
T1 construct: 19-residue synthetic ER signal peptide (design based on the homologous rat esterase, Robbi et al. 1990; Ala added after Met) (N); made in house; host or cells: Spodoptera frugiperda SF9 cells, baculovirus
T1 sequence (P12337 with tags, fused parts or gaps H30K/A196R): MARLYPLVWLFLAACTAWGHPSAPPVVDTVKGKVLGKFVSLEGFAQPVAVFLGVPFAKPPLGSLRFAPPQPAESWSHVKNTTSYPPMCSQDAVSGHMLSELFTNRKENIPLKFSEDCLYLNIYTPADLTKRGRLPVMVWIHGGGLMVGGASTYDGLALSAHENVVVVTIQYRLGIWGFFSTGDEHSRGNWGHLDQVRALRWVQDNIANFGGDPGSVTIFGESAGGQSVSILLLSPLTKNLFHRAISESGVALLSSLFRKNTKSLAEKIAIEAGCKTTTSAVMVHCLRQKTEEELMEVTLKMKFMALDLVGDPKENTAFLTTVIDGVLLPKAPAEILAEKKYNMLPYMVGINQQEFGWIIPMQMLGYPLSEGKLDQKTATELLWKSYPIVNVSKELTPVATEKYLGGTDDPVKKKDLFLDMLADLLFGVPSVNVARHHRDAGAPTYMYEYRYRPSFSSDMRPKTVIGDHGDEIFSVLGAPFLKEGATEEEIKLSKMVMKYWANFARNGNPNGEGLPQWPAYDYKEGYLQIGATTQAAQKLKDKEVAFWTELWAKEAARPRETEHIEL
Experimental: Esterase activity assays. Esterase activity was measured in vitro by conversion of either [^14 C]thiazopyr or [^14 C]MON 14300 to their corresponding monoacid. Pyridine-esterase activity was assayed during protein purification and from tissue extracts of transgenic plants. The homogenizing buffer for plant tissues consisted of 100 mM Tris pH 8.0, 1 mM EDTA, 1 mM DTT, and 10% glycerol in water. Plant tissues (1 g/ml buffer) including leaves, seeds, flowers, seedlings, etc. were homogenized in conical centrifuge tubes using a spinning pestle at 4° C. Following centrifugation (12,000× g), the supernatant (250 μl) was assayed immediately for esterase activity by incubation with [^14 C]thiazopyr or [^14 C]MON 14300 (4 μg) in 0.1 M Tris pH 8.0 buffer (50 μl) at 37° C. The reaction was sampled (100 μL) at various times (0.5 to 100 hr) to generate a kinetic profile of monoacid formation. The reaction was stopped by addition of 1% trifluoroacetic acid in acetonitrile (v/v, 150 μl). Following centrifugation (12,000× g for 3 min), the supernatant was analyzed by HPLC/RAD (radioactivity detection) to resolve the monoacid from the parent herbicide and other metabolites. Control reactions in the absence of the esterase recovered un-reacted thiazopyr or MON 14300 for the duration of experiments. Esterase activity was also assayed during protein purification following a similar procedure except a single time-point (1-2 hrs) of incubation was selected within the linear range of reaction. In vitro assays also employed three commonly used calorimetric (p-nitrophenyl butyrate) or fluorescent (4-methyl umbelliferyl butyrate and 5-bromo-4-chloro-3-indolylacetate) substrates. These substrates are useful in rapidly and qualitatively detecting general esterase activity.
Expression of RLE1 and RLE3 cDNAs in insect cells. Mature rabbit liver esterases are glycoproteins which reside in the lumen of the endoplasmic reticulum (ER) (Korza et al., 1988). […]

SMILES | esterase activity against substrate (rabbit liver esterase) | esterase activity against substrate (RLE3)
COC(=O)c1c(C(F)F)nc(C(F)(F)F)c(C(=O)n2cccn2)c1CC(C)C [MON 14300] | active | demonstrated esterase activity
COC(=O)c1c(C(F)F)nc(C(F)(F)F)c(C2=NCCS2)c1CC(C)C [thiazopyr] | active | demonstrated esterase activity
